According to US20150246137A1, “LIPID COATED NANOPARTICLES CONTAINING AGENTS HAVING LOW AQUEOUS AND LIPID SOLUBILITIES AND METHODS THEREOF” (THE UNIVERSITY OF NORTH CAROLINA AT CHAPEL HILL, priority 2012, published 2015):
“Also recorded” adds a separate entry of the source.

Key:
[1] = tested on: 1205Lu cells; test: Cell toxicity assay (MTS); assay type: cell-based, human; conditions: 48 h
Description: 1205Lu cells were seeded in 96-well plates at a density of 2000 cells/well and incubated in 10% FBS of DMEM containing 100 U/mL penicillin, and […] streptomycin for 20 h. Then, the medium was removed and replaced by Opti-MEM containing CDDP or LPC NPs. Forty-eight hours later, a CellTiter 96 AQueous One Solution Cell Proliferation Assay (Promega, Madison, Wis.) kit containing the tetrazolium compound MTS was used to assay cell viability according to the manufacturer's protocols.

[2] = Kidney and liver function parameters; assay type: in vivo, mice
From the text: To evaluate the kidney toxicity, organs were taken for histopathological observation using H&E staining. […] We also did a pathologic examination by H&E staining of other major organs (liver, lung, spleen and heart) from mice that received long-term treatments (not shown). […] Finally, we tested the blood parameters. Levels of secreted liver enzymes (AST and ALT), and blood urea nitrogen were all unchanged after a four-dose treatment with LPC or LPI, indicating a lack of damage to the liver and the kidneys (Table 2).
After the therapeutic experiment was complete, blood samples were collected and allowed to clot for 2 h at room temperature. Serum was obtained through centrifugation for 20 min at 2,000 g. For liver and renal function experiments, the levels of aspartate aminotransferase, alanine aminotransferase, and blood urea nitrogen in the serum were measured. Major organs were collected after treatment and were formalin fixed and processed for routine H&E staining using standard methods. Images were collected using a Nikon light microscope (Nikon). After the A375M tumor reached 600 mm^3, the mice were treated with two weekly IV injections of LPC NPs at a dose of 3.0 mg/kg Pt. Seven days post the last injection, the mice were sacrificed and the tumors are assayed with TUNEL.

[3] = tested on: A375M melanoma xenograft tumors; test: In vivo anticancer efficacy, A375M xenograft; set-up: species or system nude mice; conditions: weekly IV, 1.0 mg/kg Pt
Description: All procedures involving experimental mice are performed in accordance with the protocols conformed to the Guide for the Care and Use of Laboratory Animals (NIH publication No. 86-23, revised 1985). Female athymic nude mice, 5-6 weeks old and weighing 18-22 g were obtained. 5×10^6 A375M cells were injected subcutaneously into the mice. After 10 days, the mice were randomly divided into four groups (4-6 mice per group). The mice were treated with weekly IV injections of CDDP and LPC NPs and saline as a control. A dose of 1.0 mg/kg Pt was administered. Thereafter, tumor growth and body weight were monitored. Tumor volume was calculated using the following formula: TV=(L×W^2)/2, with W being smaller than L. Finally, mice were sacrificed using a CO2 inhalation method.
After the therapeutic experiment was complete, blood samples were collected and allowed to clot for 2 h at room temperature. […] For liver and renal function experiments, the levels of aspartate aminotransferase, alanine aminotransferase, and blood urea nitrogen in the serum were measured. […]
The tumors were fixed in 4.0% paraformaldehyde (PFA), paraffin-embedded, and sectioned. […] TUNEL-positive nuclei were monitored by using a fluorescence microscope (Nikon, Tokyo, Japan). […] TUNEL-positive cells in three slides of images taken at 40× magnification were counted to quantify apoptosis.

[4] = tested on: A375M cells; test: In vitro neighboring effect study (co-culture, Annexin V); assay type: cell-based, human; conditions: 48 h co-culture 1:10, A375M-GFP pretreated 50 μM Pt 4 h
Description: A375M-GFP cells (2×10^5) were seeded in 6-well plates (Corning Inc., Corning, N.Y.) 20 h before the beginning of the experiments. […] The A375M-GFP cells were mixed with A375M cells at the ratio of 1:10 (total cell number: 2×10^5) and reseeded into 6-well plates. After culturing for 48 h, the cells were stained with Hoechst 33342 (Sigma, St Louis, Mo.) and Annexin V Alexa Fluor® 568 Conjugate (Invitrogen, Carlsbad, Calif.). […] Results were processed using the Cellquest software (Becton-Dickinson).

[5] = Biodistribution of Pt in A375M tumor-bearing mice; assay type: in vivo; conditions: twenty-four hours post-IV injection, 1.0 mg/kg Pt
Description: […] Tissue samples were digested by concentrated nitric acid overnight at room temperature and processed according to the procedure reported previously the literature.119, 120 The concentration of Pt was measured using ICP-MS.

[6] = tested on: 1205Lu xenograft tumors; test: In vivo anticancer efficacy, 1205Lu xenograft; set-up: species or system nude mice; conditions: 2.0 mg/kg Pt
Description: Female athymic nude mice, 5-6 weeks old and weighing 18-22 g were obtained. 1205Lu xenograft tumors were developed through subcutaneous injection of approximately 5 million 1205Lu cells in female nude mice. […] Tumor growth and body weight were monitored. Tumor volume was calculated using the following formula: TV=(L×W^2)/2, with W being smaller than L. Finally, mice were sacrificed by CO2 inhalation. Tumors were collected after treatment and were formalin fixed and processed for TUNEL assay.
The tumors were fixed in 4.0% paraformaldehyde (PFA) and subsequently paraffin-embedded and sectioned. To detect apoptotic cells in tumor tissues, a TUNEL assay, using a DeadEnd™ Fluorometric TUNEL System (Promega, Madison, Wis.), was performed, following the manufacturer's protocol. Cell nuclei, which were stained with green fluorescence, are defined as TUNEL-positive nuclei. TUNEL-positive nuclei were monitored using a fluorescence microscope (Nikon, Tokyo, Japan). The cell nuclei were stained with 4, 6-diaminidino-2-phenyl-indole (DAPI) (Vectashield, Vector Laboratories, Inc., Burlingame, Calif.). To quantify TUNEL-positive cells, green-fluorescence-positive cells are counted in three images taken at 40× magnification.

[7] = H&E histopathology of organs; assay type: in vivo, mice; conditions: long-term treatments
[8] = tested on: A375M cells; test: Cell toxicity assay (MTS); assay type: cell-based, human; conditions: 48 h, read-out: IC50, growth inhibition
Description: A375M cells were seeded in 96-well plates at a density of 2000 cells/well and incubated in 10% FBS of DMEM containing 100 U/mL penicillin and […] streptomycin for 20 h. The medium was removed and replaced by Opti-MEM containing CDDP or LPC NPs. Forty-eight hours later, a CellTiter 96 AQueous One Solution Cell Proliferation Assay (Promega, Madison, Wis.) kit containing the tetrazolium compound MTS was used to assay cell viability according to the manufacturer's protocols. The IC50 values were calculated using Graphpad Prism 5 (Graphpad Software Inc.)

[9] = tested on: H460 cells; test: Cell cycle analysis (flow cytometry); assay type: cell-based, human; conditions: H460, 24 h
Description: H460 cells (2×10^5) were seeded in 6-well plates 24 h prior to the treatment. The formulations, IEP-PEG, IEP-PEG AA, InCl3, free liposome and free drug were added and incubated for 24 h at 37° C., humidified CO2 incubator. The cells were trypsinized and washed with PBS followed by fixation in pre-cooled 70% ethanol at −20° C. for at least 1 h. Fixed cells were washed with PBS staining buffer (BD Pharmingen, San Diego, Calif.) and incubated with RNAase (final concentration […]) at 37° C. for 30 min, followed by incubation with […] propidium iodide (PI) at room temperature for 30 min. Finally, cells were washed and suspended in PBS, and analyzed with a FACS Canto flow cytometer (BD Biosciences) to measure the PI intensity, which correlates with the DNA content in the cell cycle. A total of 20,000 events are acquired for each sample and data were analyzed with FACS Diva software (BD Biosciences).

[10] = tested on: H460 tumor; test: TUNEL and PCNA immunohistochemistry in H460 tumors; assay type: in vivo, mice; conditions: three daily IV injections, 5 mg/kg
Description: In vivo tumor cell apoptosis was determined by TdT-mediated dUTP Nick-End Labeling (TUNEL) assay. […] Twenty-four hours after the final injection, mice were sacrificed and tumors are fixed in 4% paraformaldehyde solution for 12 h before being embedded in paraffin and sectioned at a thickness of 5 μm. The TUNEL staining was performed as recommended by the manufacturer (Promega). DAPI mounting medium (Vector Laboratories, Inc., Burlingame, Calif.) was dropped on the sections for nucleus staining. Images of TUNEL-stained tumor sections were captured with a fluorescence microscope (Nikon Corp., Tokyo, Japan). The percentage of apoptotic cells was obtained by dividing the number of apoptotic cells(TUNEL positive cells shown as green dots) from the number of total cells(blue nuclei stained by DAPI, not shown) in each microscopic field, and 10 representative microscopic fields were randomly selected in each treatment group for this analysis. Proliferation of tumor cells after the aforementioned treatments and dosing schedule was detected by immunohistochemistry, using an antibody against proliferating cell nuclear antigen (PCNA) (1:200 dilution, Santa Cruz). The immunohistochemistry was performed using a mouse-specific HRP/DAB detection IHC kit as recommended by the manufacturer (Abcam, Cambridge, Mass.). […]

[11] = tested on: H460 cells; test: In vitro cell viability assay (MTT); assay type: cell-based, human; conditions: NCI-H460, 36 h
Description: In vitro cell viability of IEP nanoparticles was determined by using the 3-[4,5-dimethylthiazol-2-yl]-2,5-diphenyltetrazolium bromide (MTT) assay. H460 cells were seeded at a density of 1×10^4 per well in96-well plates 24 hours prior to treatment. The cells were treated with different concentrations of IEP-PEG, IEP-PEG AA, free Indium chloride, free outer liposome and free etoposide phosphate for 36 h. The concentrations of indium chloride and free liposomes were maintained in equal mounts used for IEP-PEG and IEP-PEG AA. The medium was replaced with fresh medium containing 5% MTT (Biosynth Inc.) solution and incubated at 37° C. for another 4 h. The resulting formazan crystals were solubilized by adding 100 μL DMSO/Methanol (50:50) solution to each well. The absorbance at 570 nm wavelength was measured with a micro plate reader. Cell viability was calculated as the percentage of the absorbance of the treated cells to that of untreated cells.

[12] = tested on: caspase-3/7; test: Caspase activation assay; assay type: cell-based, human; conditions: NCI H-460 cells, 24 h
Description: H460 cells (2×10^5) were treated as mentioned above with all formulations. The cells were lysed with a radio-immunoprecipitation assay (RIPA) buffer that was supplemented with a protease inhibitor cocktail (Promega, Madison, Wis.). The protein lysates were collected by centrifugation at 14,000 rpm for 10 min at 4° C. Protein concentrations were determined using the BCA assay kit (Pierce Biotechnology) following the manufacturer's recommendations. Thirty micrograms protein of each sample was used to detect caspase-3/7 activity of the cell lysates by using an in vitro assay kit according to the manufacturer's instructions (Promega).

[13] = tested on: PARP-1; test: Western blot analysis for PARP; assay type: cell-based, human; conditions: H460 cells
Description: Forty micrograms of protein per lane was resolved by 4%-12% SDS-PAG Electrophoresis (Invitrogen) before being transferred to polyvinylidenedifluoride (PVDF) membranes (Bio-Rad). The membranes were blocked for 1 h with 5% skim milk at room temperature and then incubated with mouse monoclonal poly (ADPribose) polymerase-1 (PARP-1) antibodies (1:500 dilution; Santa Cruz biotechnology, Inc.) and with β-actin antibody (1:4000 dilution; Santa Cruz biotechnology, Inc.) overnight at 4° C. β-actin was probed as the loading control. The membranes were washed 3 times and then incubated with a secondary antibody (1:4000 dilutions; Santa Cruz biotechnology, Inc.) at room temperature for 1 h. Goat anti-mouse secondary antibody is used for PARP and β-actin primary antibody. Finally, the membranes were washed 4 times and developed by an enhanced chemiluminescence system according to the manufacturer's instructions (Thermo scientific).

[14] = tested on: H460 subcutaneous xenograft; test: Tumor growth inhibition study, H460 xenograft; assay type: in vivo, mice; conditions: IV every other day, EP 5 mg/kg
Description: A tumor growth inhibition study was completed on H460 subcutaneous xenograft mouse models. Mice were inoculated with 5×10^6 […] by subcutaneous injection. Treatment was started when the tumor volumes reached about 100-150mm^3. The mice were randomly assigned into treatment groups (n=5), and intravenously injected different formulations, including […] and free EP. Four injections were performed every other day for a total of 4 injections at an EP dose of 5 mg/kg. Tumor sizes were measured every other day with calipers across their two perpendicular diameters, and the tumor volume was calculated using the following formula: […] Body weight of each mouse is recorded every other day. Humane sacrifice of mice was performed when tumors reached 20 mm in one dimension.

## N.N.[Cl][Pt][Cl] [CDDP, cis-diaminedichloroplatinum(II)]
[1]
  IC50: 12.4 µM
[2]; A375M study, FIG. 33
  AST and ALT functional parameters: fall within the normal range
[2]; four-dose treatment, mean ± SD
  ALT: 54.3 ± 9.7 U/L
  AST: 105.7 ± 27.1 U/L
  BUN: 25.7 ± 0.6 mg/dL
[3]
  tumor growth: ineffective; also recorded: not effective at all
[4]
  apoptotic cells in the untreated cell population: less than 6%
[5]
  accumulation in the tumors: 1.2 % of the injected dose per gram
[6]
  apoptosis in tumor (TUNEL): 6.3%
[6]; weekly IV
  tumor growth: partial effect
[7]
  damage of other major organs (H&E): no toxicities in heart and lung
[8]
  IC50: 10.2 µM

## COc1cc([C@@H]2c3cc4c(cc3[C@@H](O[C@@H]3O[C@@H]5CO[C@@H](C)O[C@H]5[C@H](O)[C@H]3O)[C@H]3COC(=O)[C@H]23)OCO4)cc(OC)c1OP(=O)(O)O [EP, Etoposide phosphate]
[9]
  cells at G2/M phase: About 50%
[10]
  PCNA positive cells in tumor sections: 75-80%
[11]
  cell viability / toxicity (MTT): dose-dependent toxicity
[12]
  caspases 3 and 7 activity relative to untreated control: 4 fold
[13]
  increase in the 89 kDa PARP-1 cleavage product: readily detectable
[14]
  tumor growth: minimal impact on tumor growth

## [Cl-].[Cl-].[Cl-].[In+3] [Indium chloride]
[9]
  cells at G2/M phase: no discernable effect
[11]
  cell viability / toxicity (MTT): no effect on viability
[12]
  caspases 3 and 7 activity relative to untreated control: no effect
[13]
  increase in the 89 kDa PARP-1 cleavage product: no effect
